Data set [1] has as its system squirrel monkeys. Put plainly: Antinociception: warm-water tail-withdrawal. It counts as in vivo, squirrel monkeys (Saimiri sciureus). Conditions: 52 °C water, cumulative dosing. On the procedure:
Male squirrel monkeys (Saimiri sciureus) were housed in a climate-controlled vivarium with a 12 h light/dark cycle (7 AM–7 PM) in the McLean Hospital Animal Care Facility (licensed by the U.S. Department of Agriculture and compliant with guidelines provided by the Committee on Care and Use of Laboratory Animals of the Institute of Laboratory Animals Resources, Commission on Life Sciences, National Research Council; 2011). Tail withdrawal latencies were assessed as described previously. Briefly, monkeys were seated in customized Plexiglas chairs that allowed their tails to hang freely. Tail withdrawal latencies were measured by immersing the subject’s tail in water held at 35 or 52 °C (temperatures were presented in a randomized order during successive test components). After obtaining a baseline tail withdrawal latency, complete dose response curves were generated in each subject using standard cumulative dosing procedures. Briefly, every 15 min after an injection tail-withdrawal latencies at each temperature were redetermined and subjects were injected with the next dose, such that the total (cumulative) dose was increased by ½ log10 units in each successive cycle. This procedure was repeated until either (a) the tail-withdrawal latency from 52 °C water reached the maximum allowable latency (10 sec), or (b) tail-withdrawal latency no longer increased with increases in dose of the test drug.
(§1) All statistical analyses and graphic representations were completed with GraphPad Prism version 9.3.0 (GraphPad Software, San Diego, CA, USA) using log transformed values of doses. Group means ± SEM tail withdrawal latencies (in sec) and minute volume ratios are plotted as a function of drug dose. Data were analyzed using One-way ANOVA with significance set at p < 0.05, followed by Dunnett’s multiple comparison test.

The subject of data set [2] is squirrel monkeys. The data set can be described thus: Respiratory depression: ventilatory response to hypercapnia (5% CO2 in air). The data set is classed as in vivo, squirrel monkeys (Saimiri sciureus). Conditions: ratio of minute volumes in 5% CO2 and room air, cumulative dosing. The method, then: Ventilation measures were assessed as described previously. Briefly, squirrel monkeys were acclimated to a customized acrylic chamber (10″ d × 10″ w × 10″ h) that served as a whole-body plethysmograph (EMKA Technologies, Montreal, PQ, Canada). Gas (either air or a 5% CO2 in air mixture) was introduced to and extracted from the chamber at a constant flow rate of 5 L/min. Experimental sessions consisted of 4–6 consecutive 30 min cycles, each comprising a 20 min exposure to air followed by a 10 min exposure to 5% CO2. Drug effects were determined using cumulative dosing procedures, and injections were administered following each exposure to 5% CO2. Respiratory rate and tidal volume (mL/breath) were recorded over 1 min periods and were multiplied to provide minute volumes. Data from the last three minutes of each exposure to air or CO2 were averaged and used for analysis of drug effects on ventilation.
as §1

Data set [3] deals with T1, human δ-opioid receptor (OPRD1) (Homo sapiens, UniProt P41143). Put plainly: Forskolin-induced cAMP accumulation assay, DOR antagonist mode. The conditions noted are these: for DOR Antagonist %Imax ± SEM: versus EC50 of SNC80, normalized to naltrexone.
Data set [4] deals with T1, human δ-opioid receptor (OPRD1). The data set can be described thus: Forskolin-induced cAMP accumulation assay, DOR agonist mode. The conditions noted are these: for Emax: CHO-K1, read-out: DOR Agonist %Emax ± SEM.
The target of data set [5] is T2, mouse mu opioid receptor (Mus musculus, UniProt P42866).
T2 construct: expressed in transfected cells; host or cells: CHO (mMOR-CHO), membrane homogenates
The data set can be described thus: [35S]GTPγS functional assay (mMOR-CHO membranes). The data set is classed as biochemical. The conditions noted are these: for EC50: mMOR-CHO membranes, read-out: GTPgS EC50; for Emax: read-out: GTPgS % Emax of (DAMGO).

For data set [6], the target named is T3, human κ-opioid receptor (OPRK1) (Homo sapiens, UniProt P41145). Conditions: versus EC90 of U50488H; normalized to nor-BNI.
Data set [7] concerns the target T3, human κ-opioid receptor (OPRK1). Put plainly: cell-based.
The target in data set [8] is T2, mouse mu opioid receptor. The data set can be described thus: Competition radioligand binding assay ([3H]naloxone, mMOR-CHO membranes). Conditions: 1.4 nM [3H]naloxone, read-out: [3H]NLX Binding Ki. The method, then: In vitro binding assays were performed using monocloned mouse mu opioid receptor expressing Chinese hamster ovary (CHO) cells (mMOR-CHO). mMOR-CHO cell culture and membrane homogenate preparation were performed as previously described. All assays were duplicated and repeated at least three times.
Competition binding assays were performed as previously described. […] Bound radioactive ligand was isolated by filtration through GF/B glass fiber filters and rinsed three times with ice-cold wash buffer (50 mM Tris-HCl, pH 7.2). Bound radioactivity was determined via liquid scintillation ounting. […] The IC50 values were determined by nonlinear regression analysis using GraphPad Prism 9 (GraphPad Software, San Diego, CA, USA) and converted to Ki values using the Cheng–Prusoff equation.

In data set [9] the target is T3, human κ-opioid receptor (OPRK1). The data set can be described thus: cell-based. The source holds these as a separate data set.

Results on 13 molecules are retold here after paper PMC9570967 (Molecules, 2022).

“Also recorded” adds a separate entry of the source.

T3 sequence (P41145 whole entry): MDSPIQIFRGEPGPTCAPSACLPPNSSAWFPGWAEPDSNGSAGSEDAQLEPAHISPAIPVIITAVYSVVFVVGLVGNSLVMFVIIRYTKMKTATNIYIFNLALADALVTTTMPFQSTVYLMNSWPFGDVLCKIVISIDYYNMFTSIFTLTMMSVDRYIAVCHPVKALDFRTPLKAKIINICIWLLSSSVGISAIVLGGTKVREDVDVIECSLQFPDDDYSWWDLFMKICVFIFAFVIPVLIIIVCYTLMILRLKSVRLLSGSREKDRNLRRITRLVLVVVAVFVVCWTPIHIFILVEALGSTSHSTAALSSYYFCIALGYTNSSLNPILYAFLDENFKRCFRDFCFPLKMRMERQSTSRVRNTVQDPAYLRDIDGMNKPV
T2 sequence (P42866 whole entry): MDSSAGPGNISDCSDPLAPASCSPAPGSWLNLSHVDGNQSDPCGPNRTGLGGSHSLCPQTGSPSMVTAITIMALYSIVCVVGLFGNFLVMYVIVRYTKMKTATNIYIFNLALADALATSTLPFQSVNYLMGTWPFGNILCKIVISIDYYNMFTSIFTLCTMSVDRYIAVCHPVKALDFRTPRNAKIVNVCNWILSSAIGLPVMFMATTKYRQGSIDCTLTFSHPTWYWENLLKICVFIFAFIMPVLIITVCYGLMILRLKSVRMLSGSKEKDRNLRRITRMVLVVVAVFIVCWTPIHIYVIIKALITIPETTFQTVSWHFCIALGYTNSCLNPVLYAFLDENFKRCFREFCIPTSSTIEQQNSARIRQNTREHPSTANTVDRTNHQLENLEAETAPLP
T1 sequence (P41143 whole entry): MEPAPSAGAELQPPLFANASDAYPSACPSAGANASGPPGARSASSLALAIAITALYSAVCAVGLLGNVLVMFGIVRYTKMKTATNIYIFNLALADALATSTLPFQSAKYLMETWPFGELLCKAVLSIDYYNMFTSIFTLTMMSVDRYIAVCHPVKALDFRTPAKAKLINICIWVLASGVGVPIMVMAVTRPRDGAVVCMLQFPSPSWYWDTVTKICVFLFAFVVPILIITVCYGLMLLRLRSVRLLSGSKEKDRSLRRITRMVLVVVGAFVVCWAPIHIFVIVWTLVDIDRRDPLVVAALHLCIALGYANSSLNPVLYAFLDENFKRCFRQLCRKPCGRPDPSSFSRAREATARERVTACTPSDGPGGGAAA

As for `C=C[C@H]1[C@H]2CCC[C@]1(c1cccc(O)c1)CCN2CCc1ccccc1` [Compound 8, 3-((1R,5S,9R)-2-Phenethyl-9-vinyl-2-azabicyclo [3.3.1]nonan-5-yl)phenol], the “Effect on tail withdrawal latency (antinociception)” value (shortened to “Effect on tail withdrawal latency”) in the data set on squirrel monkeys [1] is recorded as “significantly increased tail withdrawal latency; also recorded: had antinociceptive effects”. Also, in the data set with squirrel monkeys [2], the “Effect on ventilatory ratio (respiratory depression)” value is given as “reduced the ability of 5% CO2 to stimulate increases in ventilation; also recorded: morphine-like respiratory depressant effects”. Besides, the half-maximal inhibitory concentration (IC50) in [3] stood at 0.113 ± 0.0436 µM; in [7], 0.074 ± 0.0305 µM. Further, the “DOR Antagonist %Imax ± SEM” value in data set [3] stood at 119.1 ± 15.5%. The results for the EC50 (in data set [4]; on mouse mu opioid receptor [5]; in data set [9]) were over 10 µM, 0.00673 ± 0.00135 µM and over 10 µM, respectively. Besides, the Emax on mouse mu opioid receptor [5] is 20.1 ± 0.78%. In data set [6], the “KOR Antagonist %Imax ± SEM” value was determined as 97.1 ± 9.2%. Also, at mouse mu opioid receptor [8], the Ki came to 0.0005 ± 5e-05 µM.
In the case of `C=C[C@@H]1[C@H]2CCC[C@]1(c1cccc(O)c1)CCN2CCc1ccccc1` [Compound 9, 3-((1R,5S,9S)-2-Phenethyl-9-vinyl-2-azabicyclo [3.3.1]nonan-5-yl)phenol], the “Effect on tail withdrawal latency” value in the data set on squirrel monkeys [1] is “inconsistent effect of tail withdrawal latency; also recorded: antinociceptive effects in some, but not all subjects”. Besides, in the data set with squirrel monkeys [2], the “Effect on ventilatory ratio (respiratory depression)” value was “did not alter ventilation; also recorded: did not produce morphine-like decreases in ventilatory ratio”. The values for the half-maximal effective concentration (EC50) (in data set [4]; on mouse mu opioid receptor [5]; in data set [9]) were 0.057 ± 0.0214 µM, 0.037 ± 0.0155 µM and over 10 µM, respectively. In addition, the maximal effect (Emax) in [4] is 22.6%; on mouse mu opioid receptor [5], 10.5 ± 0.82%. The “KOR Antagonist %Imax ± SEM” value in [6] is 101.8 ± 19.1%. Moreover, in [7], the IC50 came out at 0.0198 ± 0.0097 µM. The Ki on mouse mu opioid receptor [8] was determined as 0.00191 ± 0.00013 µM.
Regarding `C=C[C@H]1[C@@H]2CCC[C@@]1(c1cccc(OC)c1)CCN2CCc1ccccc1` [Compound 13, (1S,5R,9R)-5-(3-Methoxyphenyl)-2-phenethyl-9-vinyl-2-azabicyclo [3.3.1]nonane], the IC50 in [3] and in data set [7] was over 10 µM in each case. Moreover, the 50% effective concentration (EC50) in [4] and in data set [9] was over 10 µM each time.
Regarding `C=C[C@@H]1[C@@H]2CCC[C@@]1(c1cccc(O)c1)CCN2CCc1ccccc1` [Compound 14, 3-((1S,5R,9S)-2-Phenethyl-9-vinyl-2-azabicyclo [3.3.1]nonan-5-yl)phenol], the EC50 was 0.122 ± 0.0472 µM in data set [4] and over 10 µM in data set [9]. The Emax in data set [4] is 40.6%. In data set [6], the “KOR Antagonist %Imax ± SEM” value came out at 105.6 ± 4.6%. Also, the IC50 in data set [7] is 0.128 ± 0.0482 µM.
`C=C[C@H]1[C@@H]2CCC[C@@]1(c1cccc(O)c1)CCN2CCc1ccccc1` [Compound 15, 3-((1S,5R,9R)-2-Phenethyl-9-vinyl-2-azabicyclo [3.3.1]nonan-5-yl)phenol]: the IC50 in data set [3] came to 0.144 ± 0.041 µM; in data set [7], 0.0284 ± 0.0042 µM. Moreover, in data set [3], the “DOR Antagonist %Imax ± SEM” value came out at 201.4 ± 35.9%. Besides, the EC50 in data set [4] and in data set [9] was over 10 µM each time. Moreover, the “KOR Antagonist %Imax ± SEM” value in data set [6] is 104.9 ± 11.2%.
For the molecule `C/C=C\[C@@H]1[C@H]2CCC[C@]1(c1cccc(O)c1)CCN2CCc1ccccc1` [Compound 18, 3-((1R,5S,9S)-2-Phenethyl-9-((Z)-prop-1-en-1-yl)-2-azabicyclo [3.3.1]nonan-5-yl)phenol], the concentration giving a half-maximal response (EC50) was 0.00969 ± 0.00223 µM in [4], 0.00838 ± 0.00077 µM at mouse mu opioid receptor [5] and over 10 µM in data set [9]. Further, the maximal response (Emax) in data set [4] is 74.5%; on mouse mu opioid receptor [5], 75.3 ± 3.83%. In [6], the “KOR Antagonist %Imax ± SEM” value worked out at 114.8 ± 11.2%. In addition, in [7], half-maximal inhibition (IC50) required 0.238 ± 0.0526 µM. In addition, the Ki at mouse mu opioid receptor [8] came out at 0.00056 ± 7e-05 µM.
Consider `C/C=C\[C@H]1[C@@H]2CCC[C@@]1(c1cccc(O)c1)CCN2CCc1ccccc1` [Compound 20, 3-((1S,5R,9R)-2-Phenethyl-9-((Z)-prop-1-en-1-yl)-2-azabicyclo [3.3.1]nonan-5-yl)phenol], for which the IC50 in data set [3] was 0.00752 ± 0.00293 µM; in data set [7] it was 0.00402 ± 0.00025 µM. Moreover, the “DOR Antagonist %Imax ± SEM” value in data set [3] was 142.5 ± 23.7%. Besides, the EC50 in [4] and in data set [9] was over 10 µM throughout. In addition, in [6], the “KOR Antagonist %Imax ± SEM” value is on record as 126.7 ± 2.6%.
As to `C/C=C\[C@@H]1[C@@H]2CCC[C@@]1(c1cccc(O)c1)CCN2CCc1ccccc1` [Compound 21, 3-((1S,5R,9S)-2-Phenethyl-9-((Z)-prop-1-en-1-yl)-2-azabicyclo [3.3.1]nonan-5-yl)phenol], in [4], the EC50 was determined as 0.0605 ± 0.0037 µM and the Emax was 66.7%. Moreover, in data set [6], the “KOR Antagonist %Imax ± SEM” value worked out at 111.8 ± 2.2%. Inhibition in data set [7] was half-maximal at 0.163 ± 0.037 µM (IC50). Besides, the EC50 in data set [9] is over 10 µM.
In the case of `CC/C=C\[C@H]1[C@H]2CCC[C@]1(c1cccc(O)c1)CCN2CCc1ccccc1` [Compound 23, 3-((1R,5S,9R)-9-((Z)-But-1-en-1-yl)-2-phenethyl-2-azabicyclo [3.3.1]nonan-5-yl)phenol], the IC50 in data set [3] was 0.069 ± 0.0048 µM; in data set [7] it was 0.328 ± 0.0969 µM. Also, the “DOR Antagonist %Imax ± SEM” value in [3] was determined as 166.6 ± 40.0%. Besides, the concentration giving a half-maximal response (EC50) in data set [4] and in data set [9] was over 10 µM in each case. Moreover, in data set [6], the “KOR Antagonist %Imax ± SEM” value worked out at 109.5 ± 8.3%.
In the case of `CC/C=C\[C@@H]1[C@H]2CCC[C@]1(c1cccc(O)c1)CCN2CCc1ccccc1` [Compound 24, 3-((1R,5S,9S)-9-((Z)-But-1-en-1-yl)-2-phenethyl-2-azabicyclo [3.3.1]nonan-5-yl)phenol], the IC50 in data set [3] turned out to be 3.22 ± 0.572 µM; in [7] it was 0.283 ± 0.0464 µM. For the same molecule, the “DOR Antagonist %Imax ± SEM” value in data set [3] is 182.3 ± 56.4%. Further, the 50% effective concentration (EC50) in [4] and in data set [9] was over 10 µM throughout. In addition, the “KOR Antagonist %Imax ± SEM” value in [6] was found to be 103.8 ± 9.2%.
For `CC/C=C\[C@@H]1[C@@H]2CCC[C@@]1(c1cccc(O)c1)CCN2CCc1ccccc1` [Compound 26, 3-((1S,5R,9S)-9-((Z)-But-1-en-1-yl)-2-phenethyl-2-azabicyclo [3.3.1]nonan-5-yl)phenol], the half-maximal inhibitory concentration (IC50) in [3] was determined as 0.52 ± 0.144 µM; in [7], 0.0122 ± 0.0025 µM. In data set [3], the “DOR Antagonist %Imax ± SEM” value is listed as 226.1 ± 14.0%. For the same molecule, the EC50 in data set [4] and in [9] was over 10 µM throughout. In [6], the “KOR Antagonist %Imax ± SEM” value is 96.2 ± 0.9%.
As to `CC/C=C\[C@H]1[C@@H]2CCC[C@@]1(c1cccc(O)c1)CCN2CCc1ccccc1` [Compound 27, 3-((1S,5R,9R)-9-((Z)-But-1-en-1-yl)-2-phenethyl-2-azabicyclo [3.3.1]nonan-5-yl)phenol], the half-maximal inhibitory concentration (IC50) was 0.00822 ± 0.00244 µM in data set [3] and 0.00079 ± 0.00028 µM in data set [7]. The “DOR Antagonist %Imax ± SEM” value in data set [3] worked out at 211.5 ± 24.7%. Besides, the EC50 in data set [4] and in data set [9] was over 10 µM each time. Also, in data set [6], the “KOR Antagonist %Imax ± SEM” value came to 98.2 ± 2.3%.
Consider `CN1CC[C@]23c4c5ccc(O)c4O[C@H]2[C@@H](O)C=C[C@H]3[C@H]1C5` [Morphine, reference compound], for which the “Effect on tail withdrawal latency” value with squirrel monkeys [1] was “significantly increased tail withdrawal latency”.

In general, IC50 refers to the concentration needed to halve the response being measured. A higher IC50 goes with weaker potency. For orientation: EC50 means the concentration that produces a half-maximal response. For orientation: Emax means the greatest response seen or fitted, relative to the assay's reference. The Ki is a dissociation constant, usually derived from enzyme kinetics or from competition with a known ligand.
